Tests used:
AN3-CA = test: Cytotoxicity in AN3-CA endometrial cancer cells; type: cell-based; conditions: AN3-CA endometrial cancer cell line; read-out: IC50 in Human Cancer Cell Lines
Protocol: MDA-MB-435S.luc cells were grown in Leibovitz's L 15 medium, 10% fetal bovine serum, 0.01 mg/ml bovine insulin, 100 IU/ml penicillin, 100 microg/ml streptomycin. The cells were cultured in tight closed flasks. The incubations were conducted using 96 well plates at 10,000 cells per well. Cells were typically seeded into 96 well plates and media was replaced after 48 hours of incubation. Each assay was conducted at increasing concentrations of 0, 0.001, 0.01, 0.05, 0.1, 0.5, 1, 2, 5, 10 and 100 micromolar doses of lytic peptide-binding domain conjugate. Each lytic peptide-binding domain conjugate provided in lyophilized form and was freshly dissolved in saline and added to cells. The duration of incubation was typically 24 h, and cell viability assays were conducted using formazan conversion assays (MTT assay). Controls contained saline or 0.1% triton as reference for 0 and 100% cell death, respectively.
To ascertain the IC50 of various fusion constructs on different human cancer cell lines compared to cisplatinum, IC50 of fusion constructs were evaluated as in Table 3.

[1] = system: MDA-MB-435S.luc xenograft; test: MDA-MB-435S.luc xenograft, LHRH fusion constructs; type: in vivo, Nu/Nu mice
Protocol: For LHRH fusion constructs, the mouse xenograft model for breast cancer was used. In brief. Nu/Nu female mice, outbred strain, age 5 weeks (Charles River) were injected subcutaneously with a MDA-MB-435S.luc/Matrigel suspension (1×10^6 cells). Treatment was started on day 21 after tumor cell injection and continued on day 26 and 29. The doses for weekly fusion construct injections were 2, 0.2 and 0.02 mg/kg body weight, given as a bolus single injection. All mice were necropsied 34 days after tumor cell injection-baseline values for tumor weights were obtained by sacrificing 8 mice at treatment start. Primary tumors, liver, kidney, pancreas, heart, lung, and spleen were collected and prepared for histological evaluation in formalin. Tumor weights were recorded at necropsy, part of the tumors were frozen at −80 ° C. for luciferase assay determination.
Characteristics of tumors at necropsy are summarized in FIG. 10; (A) tumor weight, (B) changes of tumor weights compared to baseline, (C) total number of live tumor cells, (D) changes of total live tumor cells compared to baseline, and (E) bodyweights at baseline and necropsy. Viability of tumor cells was determined at the end of the study when tumors were measured for luciferase activity. Treatment efficacy was calculated as difference between measurements at the beginning of treatment compared to the measurement at the end of study (FIG. 10B and 10D).

242 = test: Cytotoxicity in cell line 242 (Table 7); type: cell-based, murine; conditions: 242, 24 h; read-out: In vitro activity (IC50)
IF5 = test: Cytotoxicity in IF5 murine ovarian cancer cells (24 h); type: cell-based; conditions: IF5, 24 h; read-out: In vitro activity (IC50)
Protocol: Murine ovarian cancer cell lines (ID8, IG10, IF5, and 2Cl2) were grown in RPMI 1640 media with 10% Fetal Bovine Serum. Cells were typically seeded (3000 cells per well) into 96 well plates and media was replaced after 48 hours of incubation. […] Phor18-LHRH was provided in lyophilized form was dissolved in saline and added to cells. The duration of incubation was 24 h at 37° C. Cell viability was assessed after 24 hours using a luminometric assays (Promega, CellTiter-0Glo 2.0, G9243). Controls contained saline or 0.1% triton as reference for 0 and 100% cell death, respectively.
Data were processed and analyzed using GraphPad Prism version 7.00 for Windows (GraphPad Software, San Diego California). Statistical analysis for significance was determined by a two-tailed Student's T-test. Each study was conducted to achieve an […] of at least 6.
In vitro activities were expressed as IC50 values for each cell line, time point and compound tested that were calculated using the Hill equation (Graph Pad Prizm software).

## KFAKFAKKFAKFAKKFAKQHWSYGLRPG [Phor18-LHRH]
AN3-CA
  IC50: 3800 ± 80 nM
[1]; 0.02, 0.2 and 2 mg/kg, vs baseline, saline and Phor21-βCG-ala
  treatment efficacy (tumor weight, live tumor cells): Equally effective as Phor21-βCG-ala
[1]; during treatment and after 30 days
  tumor volume: smallest tumor volumes
[1]; mouse, in vivo
  concentrations resulting in tumor weights similar to baseline: 0.2 mg/kg
[1]; tumor weight and live tumor cell reduction vs baseline compared to peptide 33, LHRH construct study
  In vivo Performance compared to 33: 1
242
  IC50: 1380 nM
IF5
  IC50: 1010 nM
